Experimental data reported in the supplement of paper PMC10307832.

compound: Cn1nnc2c(C(N)=O)ncn2c1=O [Temozolomide] + Cc1nc(NC(=O)N2CCC[C@H]2C(N)=O)sc1-c1ccnc(C(C)(C)C(F)(F)F)c1 [Alpelisib] (partner 2 µM); experiment: relative viability (nuclei count vs DMSO), 5 days (fraction); higher = more cells survive; settings: first compound 0.6325 µM
In short: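 After 5 days of treatment, lung cancer cells in 1536-well plates were fixed and stained in a single step (final 0.05% Triton X-100, 1% formaldehyde, 1 ug/ml Hoechst) and their nuclei counted on 4× images. Treatment had been applied by pin tool the day after seeding as one drug alone or as a fixed anchor-drug dose with five library-drug doses (not always all listed) in √10 steps. Relative viability is the nuclei count of treated wells divided by that of vehicle wells, and values are medians of duplicate plates.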

Compared with A-427, ABC-1 is higher in relative viability: 1.06 for the first, 1.17 for the second.

Going from BEN to CAL-12T, the relative viability falls from 1.29 to 1.22.

First: COR-L23
Second: COR-L 105
The relative viability of the first is lower: 0.851 for the first, 1.03 for the second.

Compared with Calu-6, EBC-1 is lower in relative viability: 0.989 for the first, 0.812 for the second.

Going from EKVX to EMC-BAC-2, the relative viability falls from 0.935 to 0.731.

Going from EPLC-272H to H3255, the relative viability falls from 1.08 to 0.686.

Going from HARA to HCC-15, the relative viability rises from 0.945 to 0.947.

Going from HCC-44 to HCC-78, the relative viability falls from 0.842 to 0.343.

First: HCC-366
Second: HCC-827
The relative viability of the first is lower: 0.391 for the first, 0.978 for the second.

Compared with HOP-62, IA-LM is lower in relative viability: 1 for the first, 0.716 for the second.

Compared with LC-2-ad, LCLC-97TM1 is lower in relative viability: 0.842 for the first, 0.236 for the second.

Going from LCLC-103H to NCI-H520, the relative viability rises from 0.976 to 1.12.

Going from NCI-H661 to NCI-H1299, the relative viability rises from 0.618 to 1.11.

First: NCI-H1563
Second: NCI-H1792
The relative viability of the first is higher: 1 for the first, 0.749 for the second.

Going from NCI-H2009 to NCI-H2023, the relative viability falls from 1.17 to 0.608.

First: NCI-H2228
Second: SK-LU-1
The relative viability of the first is lower: 0.721 for the first, 0.976 for the second.

First: SK-MES-1
Second: SW 1573
The relative viability of the first is higher: 0.919 for the first, 0.783 for the second.

Cell Line UMC-11 has a relative viability of 0.829.

same assay, conditions: first compound 2 µM

First: 201T
Second: A549
The relative viability of the first is higher: 1.04 for the first, 0.69 for the second.

First: A-427
Second: ABC-1
The relative viability of the first is lower: 1.05 for the first, 1.15 for the second.

Going from BEN to CAL-12T, the relative viability rises from 0.939 to 1.14.

Going from COR-L23 to COR-L 105, the relative viability rises from 0.859 to 1.15.

First: Calu-6
Second: EBC-1
The relative viability of the first is higher: 0.984 for the first, 0.918 for the second.

Going from EKVX to EMC-BAC-2, the relative viability falls from 0.856 to 0.743.

Going from EPLC-272H to H3255, the relative viability falls from 0.947 to 0.599.

Going from HARA to HCC-15, the relative viability rises from 0.81 to 0.898.

Compared with HCC-44, HCC-78 is lower in relative viability: 0.868 for the first, 0.348 for the second.

First: HCC-366
Second: HCC-827
The relative viability of the first is lower: 0.456 for the first, 1.02 for the second.

Compared with HOP-62, IA-LM is lower in relative viability: 0.896 for the first, 0.811 for the second.

Going from LC-2-ad to LCLC-97TM1, the relative viability falls from 0.942 to 0.28.

Going from LCLC-103H to NCI-H520, the relative viability falls from 1.09 to 1.05.

First: NCI-H661
Second: NCI-H1299
The relative viability of the first is lower: 0.759 for the first, 1.14 for the second.

First: NCI-H1563
Second: NCI-H1792
The relative viability of the first is higher: 1.01 for the first, 0.677 for the second.

Going from NCI-H2009 to NCI-H2023, the relative viability falls from 1.21 to 0.531.

Compared with NCI-H2228, SK-LU-1 is higher in relative viability: 0.516 for the first, 0.901 for the second.

Compared with SK-MES-1, SW 1573 is lower in relative viability: 1.06 for the first, 0.809 for the second.

With UMC-11 the relative viability was 1.02.

same assay, conditions: first compound 6.325 µM

Compared with 201T, A549 is lower in relative viability: 1.04 for the first, 0.738 for the second.

Compared with A-427, ABC-1 is higher in relative viability: 0.878 for the first, 1.1 for the second.

Going from BEN to CAL-12T, the relative viability rises from 0.977 to 1.06.

Going from COR-L23 to COR-L 105, the relative viability rises from 0.752 to 1.07.

Compared with Calu-6, EBC-1 is lower in relative viability: 0.973 for the first, 0.769 for the second.

Compared with EKVX, EMC-BAC-2 is lower in relative viability: 0.886 for the first, 0.75 for the second.

Compared with EPLC-272H, H3255 is lower in relative viability: 0.849 for the first, 0.755 for the second.

First: HARA
Second: HCC-15
The relative viability of the first is lower: 0.773 for the first, 0.993 for the second.

Compared with HCC-44, HCC-78 is lower in relative viability: 0.786 for the first, 0.356 for the second.

First: HCC-366
Second: HCC-827
The relative viability of the first is lower: 0.462 for the first, 0.995 for the second.

Going from HOP-62 to IA-LM, the relative viability falls from 0.847 to 0.716.

First: LC-2-ad
Second: LCLC-97TM1
The relative viability of the first is higher: 0.818 for the first, 0.246 for the second.

First: LCLC-103H
Second: NCI-H520
The relative viability of the first is higher: 0.999 for the first, 0.893 for the second.

First: NCI-H661
Second: NCI-H1299
The relative viability of the first is lower: 0.714 for the first, 1.04 for the second.

First: NCI-H1563
Second: NCI-H1792
The relative viability of the first is higher: 0.861 for the first, 0.651 for the second.

Going from NCI-H2009 to NCI-H2023, the relative viability falls from 1.11 to 0.624.

Going from NCI-H2228 to SK-LU-1, the relative viability falls from 0.813 to 0.525.

First: SK-MES-1
Second: SW 1573
The relative viability of the first is higher: 0.836 for the first, 0.69 for the second.

UMC-11 showed a relative viability of 0.934.

same assay, conditions: first compound 20 µM

Compared with 201T, A549 is lower in relative viability: 0.985 for the first, 0.773 for the second.

First: A-427
Second: ABC-1
The relative viability of the first is lower: 0.547 for the first, 0.829 for the second.

First: BEN
Second: CAL-12T
The relative viability of the first is lower: 0.757 for the first, 1.18 for the second.

First: COR-L23
Second: COR-L 105
The relative viability of the first is lower: 0.662 for the first, 1.02 for the second.

Compared with Calu-6, EBC-1 is lower in relative viability: 0.977 for the first, 0.871 for the second.

First: EKVX
Second: EMC-BAC-2
The relative viability of the first is lower: 0.656 for the first, 0.691 for the second.

First: EPLC-272H
Second: H3255
The relative viability of the first is higher: 0.664 for the first, 0.146 for the second.

Compared with HARA, HCC-15 is higher in relative viability: 0.666 for the first, 0.834 for the second.

Going from HCC-44 to HCC-78, the relative viability falls from 0.717 to 0.284.

Going from HCC-366 to HCC-827, the relative viability falls from 0.358 to 0.136.

Compared with HOP-62, IA-LM is lower in relative viability: 0.814 for the first, 0.711 for the second.

Compared with LC-2-ad, LCLC-97TM1 is lower in relative viability: 0.642 for the first, 0.249 for the second.

First: LCLC-103H
Second: NCI-H520
The relative viability of the first is lower: 0.927 for the first, 1.01 for the second.

First: NCI-H661
Second: NCI-H1299
The relative viability of the first is lower: 0.545 for the first, 1.05 for the second.

First: NCI-H1563
Second: NCI-H1792
The relative viability of the first is higher: 0.94 for the first, 0.791 for the second.

First: NCI-H2009
Second: NCI-H2023
The relative viability of the first is higher: 1.24 for the first, 0.596 for the second.

First: NCI-H2228
Second: SK-LU-1
The relative viability of the first is higher: 0.679 for the first, 0.394 for the second.

First: SK-MES-1
Second: SW 1573
The relative viability of the first is lower: 0.778 for the first, 0.8 for the second.

With UMC-11 the relative viability was 0.518.
